This is an account of results in publication PMC10197885, “Anomanolide C suppresses tumor progression and metastasis by ubiquitinating GPX4-driven autophagy-dependent ferroptosis in triple negative breast cancer” (International Journal of Biological Sciences, 2023).

The experiment has as its target T1, GPX4 (Homo sapiens, UniProt P36969).
T1 sequence (P36969 28-197): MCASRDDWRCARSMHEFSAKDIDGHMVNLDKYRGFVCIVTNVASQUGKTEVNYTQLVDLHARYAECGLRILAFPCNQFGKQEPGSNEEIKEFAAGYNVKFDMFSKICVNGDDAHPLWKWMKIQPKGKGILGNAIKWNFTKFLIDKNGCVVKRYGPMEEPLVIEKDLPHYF
The experiment is described as follows: SPR (Biacore, GPX4 coupled to CM5 chip); supported by CETSA in MDA-MB-231 cells. In kind it is binding. The source says: SPR (Biacore, GPX4 coupled to CM5 chip); supported by CETSA in MDA-MB-231 cells on GPX4 | AC binds to GPX4 protein as shown by surface plasmon resonance (SPR) measurements.

As a reminder, the Kd is the free concentration of one partner at which half of the binding sites on the other are occupied at equilibrium, for simple one-to-one binding. `C[C@@]12CC([C@@]3(O)[C@H](O)C[C@H]4[C@@H]5C[C@H]6O[C@]67[C@@H](O)C=CC(=O)[C@]7(C)[C@H]5CC[C@@]43C)[C@@H](C1)OC(=O)[C@]2(C)O` (stereo partly shown) [AC, Anomanolide C] displayed a Kd of roughly 24 µM.
